In patent publication US6800653B2, “Epothilone derivatives” (priority 2001, dated 2004) one finds EC50 and IC50 data, which are given here for 15 compounds.

A word on the IC50: it is the concentration that inhibits the measured activity by half.

Like-named read-outs stand apart in the source and are kept apart here.

The subject of one experiment is calf brain tubulin. The experiment is described as follows: In vitro tubulin polymerization. The experiment is classed as biochemical. As to conditions: interpolated concentration inducing an initial slope of 0.01 OD/minute; 1.0 mg/ml microtubule protein, 37°; read-out: Tubulin assay EC0.01. As for the experimental part:
In vitro Tubulin Polymerization
Twice cycled (2×) calf brain tubulin was prepared following the procedure of Williams and Lee (see Williams, R. C., Jr., and Lee, J. C. Preparation of tubulin from brain. Methods in Enzymology 85, Pt. D: 376-385, 1982) and stored in liquid nitrogen before use. Quantification of tubulin polymerization potency is accomplished following a modified procedure of Swindell, et al., (see Swindell, C. S., Krauss, N. E., Horwitz, S. B., and Ringel, L. Biologically active taxol analogues with deleted A-ring side chain substituents and variable C-2′ configurations. J. Med. Chem. 34: 1176-1184, 1991). These modifications, in part, result in the expression of tubulin polymerization potency as an effective concentration for any given compound. For this method, different concentrations of compound in polymerization buffer (0.1M MES, 1 mM EGTA, 0.5 mM MgCl2, pH 6.6) are added to tubulin in polymerization buffer at 37° in microcuvette wells of a Beckman (Beckman Instruments) Model DU 7400 UV spectrophotometer. A final microtubule protein concentration of 1.0 mg/ml and compound concentration of generally 2.5, 5.0, and 10 μM are used. Initial slopes of OD change measured every 10 seconds were calculated by the program accompanying the instrument after initial and final times of the linear region encompassing at least 3 time points were manually defined. Under these conditions linear variances were generally <10^−6, slopes ranged from 0.03 to 0.002 absorbance unit/minute, and maximum absorbance was 0.15 absorbance units. Effective concentration (EC0.01) is defined as the interpolated concentration capable of inducing an initial slope of 0.01 OD/minute rate and is calculated using the formula: EC0.01=concentration/slope. EC0.01 values are expressed as the mean with standard deviation obtained from 3 different concentrations. EC0.01 values for the compounds in this invention fall in the range 0.01-1000 μM.

The subject of experiment [1] is HCT-116 human colon carcinoma cells. The experiment is described as follows: Cytotoxicity (in vitro) by MTS assay. The conditions noted are these: read-out: HTC-116 assay IC50. The class given is cell-based. As for the experimental part: Cytoxicity was assessed in HCT-116 human colon carcinoma cells by MTS (3-(4,5-dimethylthiazol-2-yl)-5-(3-carboxymethoxyphenyl)-2-(4-sulphenyl)-2H-tetrazolium, inner salt) assay as reported in T. L. Riss, et. al., “Comparison of MTT, XTT, and a novel tetrazolium compound MTS for in vitro proliferation and chemosensitivity assays.,” Mol. Biol. Cell 3 (Suppl.): 184a, 1992. Cells were plated at 4,000 cell/well in 96 well microtiter plates and 24 hours later drugs were added and serial diluted. The cells were incubated at 37° form 72 hours at which time the tetrazolium dye, MTS at 333 μg/ml (final concentration), in combination with the electron coupling agent phenazine methosulfate at 25 μM (final concentration) was added. A dehydrogenase enzyme in live cells reduces the MTS to a form that absorbs light at […] which can be quantitated spectrophotometrically. The greater the absorbance the greater the number of live cells. The results are expressed as an IC50, which is the drug concentration required to inhibit cell proliferation (i.e. absorbance at 450 nm) to 50% of that of untreated control cells.
A general note: Formazan colour is commonly taken as a measure of viable cells.

Where [2] appears, read: HCT-116, 72 hours incubation, MTS.

With `C/C(=C\c1csc(C)n1)[C@@H]1C[C@@H]2NC2CCCC(C)[C@H](O)[C@@H](C)C(=O)C(C)(C)[C@@H](O)CC(=O)O1` (relative stereo) [Example 1, [1S-[1R*,3R*(E),7R*,10S*,11R*,12R*,16S*]]-7,11-Dihydroxy-8,8,10,12-tetramethyl-3-[1-methyl-2-(2-methyl-4-thiazolyl)ethenyl]-4-oxa-17-azabicyclo[14.1.0]heptadecane-5,9-dione.], in the experiment on calf brain tubulin, the EC50 was 14 µM. The IC50 in experiment [1] (HCT-116, 72 h) is 0.0027 µM. Regarding `C/C(=C\c1csc(C)n1)[C@@H]1C[C@H]2C(CCCC(C)[C@H](O)[C@@H](C)C(=O)C(C)(C)[C@@H](O)CC(=O)O1)N2C(=O)CN(C)C` (relative stereo) [Example 4, [1S-[1R*,3R*(E),7R*,10S*,11R*,12R*,16S*]]-17-[Dimethylamino)acetyl]-7,11-dihydroxy-8,8,10,12-tetramethyl-3-[1-methyl-2(2-methyl-4-thiazolyl)ethenyl]-4-oxa-17-azabicyclo[14.1.0]heptadecane-5,9-dione.], the EC50 in the experiment with calf brain tubulin is > 1000 µM.

Turning to `C/C(=C\c1csc(C)n1)C1CC2[C@@H](CCC[C@H](C)[C@H](O)[C@@H](C)C(=O)C(C)(C)[C@@H](O)CC(=O)O1)N2C(=O)CC(C)C` (relative stereo) [Example 5, [1S-[1R*,3R*(E),7R*,10S*,11R*,12R*,16S*]]-7,11-Dihydroxy-8,8,10,12-tetramethyl-3-[1-methyl-2-(2-methyl-4-thiazolyl)ethenyl]-17-(3-methyl-1-oxobutyl)-4-oxa-17-azabicyclo[14.1.0]heptadecane-5,9-dione.], the EC50 with calf brain tubulin is 3.5 µM. In addition, the half-maximal inhibitory concentration (IC50) in experiment [1] (setting [2]) came to 0.041 µM. As for `C/C(=C\c1csc(C)n1)C1CC2[C@@H](CCC[C@H](C)[C@H](O)[C@@H](C)C(=O)C(C)(C)[C@@H](O)CC(=O)O1)[N@@]2S(C)(=O)=O` (relative stereo) [Example 6, [1S-[1R*,3R*(E), 7R*,10S,11R*,12R*,16S*]]-17-N-Methylsulfonyl-7,11-dihydroxy-8,8,10,12-tetramethyl-3-[1-methyl-2-(2-methyl-4-thiazolyl)ethenyl]-4-oxa-17-azabicyclo[14.1.0]heptadecane-5,9-dione.], the EC50 with calf brain tubulin is 14 µM. Further, the half-maximal inhibitory concentration (IC50) in experiment [1] (setting [2]) was 0.0021 µM. With `CCNC(=O)N1C2CC(/C(C)=C/c3csc(C)n3)OC(=O)C[C@H](O)C(C)(C)C(=O)[C@H](C)[C@@H](O)[C@@H](C)CCC[C@H]21` (relative stereo) [Example 7, 1S-[1R*,3R*(E),7R*,10S,11R*,12R*,16S*]]-N-Ethyl-7,11-dihydroxy-8,8,10,12-tetramethyl-3-[1-methyl-2-(2-methyl-4-thiazolyl)ethenyl]-4-oxa-17-azabicyclo[14.1.0]heptadecane-5,9-dione-17-carboxamide.], the EC50 in the experiment on calf brain tubulin was > 1000 µM. On to `C/C(=C\c1csc(C)n1)C1CC2[C@@H](CCC[C@H](C)[C@H](O)[C@@H](C)C(=O)C(C)(C)[C@@H](O)CC(=O)O1)[N@@]2C` (relative stereo) [Example 8, [1S-[1R*,3R*(E),7R*,10S*,11R*,12R*,16S*]]-7,11-Dihydroxy-8,8,10,12,17-pentamethyl-3-[1-methyl-2-(2-methyl-4-thiazolyl)ethenyl]-4-oxa-17-azabicyclo[14.1.0]heptadecane-5,9-dione], for which the EC50 with calf brain tubulin is 2.6 µM. The IC50 in experiment [1] (HCT-116, 72 h) amounted to 0.00013 µM. Turning to `C/C(=C\c1csc(C)n1)[C@@H]1C[C@H]2C(CCCC(C)[C@H](O)[C@@H](C)C(=O)C(C)(C)[C@@H](O)CC(=O)O1)[N@@]2Cc1ccccc1` (relative stereo) [Example 15, [1S-[1R*,3R*(E),7R*,10S,11R*,12R*,16S*]]-17-Benzyl-7,11-dihydroxy-8,8,10,12-tetramethyl-3-[1-methyl-2-(2-methyl-4-thiazolyl)ethenyl]-4-oxa-17-azabicyclo[14.1.0]heptadecane-5,9-dione.], the EC50 in the experiment on calf brain tubulin turned out to be 35 µM. Further, the IC50 in experiment [1] (HCT-116, 72 h) worked out at 0.023 µM. Take `C/C(=C\c1csc(C)n1)[C@@H]1C[C@H]2C(CCCC(C)[C@H](O)[C@@H](C)C(=O)C(C)(C)[C@@H](O)CC(=O)O1)[N@]2S(N)(=O)=O` (relative stereo) [Example 16, [1S-[1R*,3R*(E),7R*,10S,11R*,12R*,16S*]]-17-Sulfonylurea-7,11-dihydroxy-8,8,10,12-tetramethyl-3-[1-methyl-2-(2-methyl-4-thiazolyl)ethenyl]-4-oxa-17-azabicyclo[14.1.0]heptadecane-5,9-dione.]: the EC50 in the experiment on calf brain tubulin came to 28 µM. In experiment [1] (setting [2]), the IC50 was 0.036 µM.

With `CNS(=O)(=O)[N@@]1C2CCCC(C)[C@H](O)[C@@H](C)C(=O)C(C)(C)[C@@H](O)CC(=O)O[C@H](/C(C)=C/c3csc(C)n3)C[C@@H]21` (relative stereo) [Example 17], the EC50 in the experiment with calf brain tubulin amounted to 2.3 µM. The IC50 in experiment [1] (setting [2]) amounted to 0.0078 µM. Consider `C/C(=C\c1csc(C)n1)C1CC2[C@@H](CCC[C@H](C)[C@H](O)[C@@H](C)C(=O)C(C)(C)[C@@H](O)CC(=O)O1)[N@@]2S(=O)(=O)N(C)C` (relative stereo) [Example 18, [1S-[1R*,3R*(E),7R*,10S*,11R*,12R*,16S*]]-7,11-Dihydroxy-N,N,8,8,10,12-hexamethyl-3-[1-methyl-2-(2-methyl-4-thiazolyl)ethenyl]-5,9-dioxo-4-oxa-17-azabicyclo[14.1.0]heptadecane-17-sulfonamide.], for which the EC50 in the experiment on calf brain tubulin was found to be 1 µM. Further, the IC50 in experiment [1] (setting [2]) is 0.0002 µM.

In the case of `C/C(=C\c1csc(C)n1)C1CC2[C@@H](CCC[C@H](C)[C@H](O)[C@@H](C)C(=O)C(C)(C)[C@@H](O)CC(=O)O1)[N@@]2S(=O)(=O)N1CCOCC1` (relative stereo) [Example 19, [1S-[1R*,3R*(E),7R*,10S,11R*,12R*,16S*]]-17-Morpholinosulfonyl-7,11-dihydroxy-8,8,10,12-tetramethyl-3-[1-methyl-2-(2-methyl-4-thiazolyl)ethenyl]-4-oxa-17-azabicyclo[14.1.0]heptadecane-5,9-dione.], the EC50 in the experiment on calf brain tubulin is 460 µM. In addition, in experiment [1] (setting [2]), the IC50 amounted to 0.16 µM. With `CC(=Cc1csc(C)n1)C1CC2OC2CCCC(C)C(O)C(C)C(=O)C(C)(C)C(O)CC(=O)O1` (stereo not drawn) [Epothilone A, reference compound], in experiment [1] (setting [2]), the IC50 came out at 0.0044 µM. Regarding `CC(=Cc1csc(C)n1)C1CC2OC2(C)CCCC(C)C(O)C(C)C(=O)C(C)(C)C(O)CC(=O)O1` (stereo not drawn) [Epothilone B, reference compound], in experiment [1] (HCT-116, 72 h), the IC50 was found to be 0.0008 µM.

With `CCCS(=O)(=O)N1C2CCCC(C)C(O)C(C)C(=O)C(C)(C)C(O)CC(=O)OC(C(C)=Cc3csc(C)n3)CC21` [Example 25, [1S-[1R*,3R*(E),7R*,10S,11R*,12R*,16S*]]-17-N-n-Propylsulfonyl-7,11-dihydroxy-8,8,10,12-tetramethyl-3-[1-methyl-2-(2-methyl-4-thiazolyl)ethenyl]-4-oxa-17-azabicyclo[14.1.0]heptadecane-5,9-dione.], the IC50 in experiment [1] (setting [2]) stood at 0.094 µM. Consider `CC(=Cc1csc(C)n1)C1CC2C(CCCC(C)C(O)C(C)C(=O)C(C)(C)C(O)CC(=O)O1)N2S(=O)(=O)c1cccs1` (stereo not drawn) [Example 26, [1S-[1R*,3R*(E),7R*,10S*,11R*,12R*,16S*]]-17-(2-thienyl)sulfonyl-7,11-dihydroxy-8,8,10,12-tetramethyl-3-[1-methyl-2-(2-methyl-4-thiazolyl)ethenyl]-4-oxa-17-azabicyclo[14.1.0]heptadecane-5,9-dione.], for which the IC50 in experiment [1] (setting [2]) worked out at 0.03 µM.
